Converted amounts (≈) assume the structure as drawn. Ends that are not written are not given here.
test system: M. catarrhalis; type: cell-based, Moraxella catarrhalis; settings: 12 h
Procedure: Colonies of M. catarrhalis were grown on sheep blood agar plates for 12 h at 37°C and 5% CO2 before transfer to brain heart infusion (BHI) medium (Carl Roth, Karlsruhe, Germany) at an initial concentration of 1.6 × 10^7 cells/ml (OD600 = 0.08) as determined using an Ultraspec 10 cell densitometer (Amersham BioSciences, Little Chalfont, UK). Bacteria were cultivated in a shaking incubator at 37°C until the concentration reached 1.2 × 10^8 cells/ml (OD600 = 0.6) and then diluted to 2 × 10^6 cells/ml (OD600 = 0.011). To establish the optimal concentration ranges for AMP activity, defensin 1 was prepared as a two-fold dilution series from 12.5 µM to 1.56 µM and was added to the bacterial cultures, which were incubated as above for a further 16 h. Untreated cultures were used as controls. The OD600 was measured automatically at 30-min intervals using an Infinite M200 Pro plate reader (Tecan Life Sciences, Männedorf, Switzerland). […] They were cultivated for a further 15 h at 37°C and 5% CO2 in serial dilution before manual counting of the colonies on each plate.
Table S1. Detailed characterization of tested AMPs. M.c. were grown to an Optical Density (OD) 600nm of 0.6 in Brain Heart Infusion (BHI) Medium.
Upon dilution to OD600nm= 0.01, M.c. were incubated with declining amounts of indicated AMPs (25 μM to 0.048 μM at halving intervals) at 37°C with 5% CO2.
OD600nm was measured at 30 min intervals to establish the minimal inhibitory concentration (MIC). pI = isoelectric point, MW = molecular weight in kiloDalton.
MIC AMP name AMP class Organism Amino Acid Sequence pIMWPurity Retention time [min] modification
0.195 µM Cecropin A α-helical Hyalophora cecropia […] 10.75 4.00 91.06 7.30 n-term. amidation
0.39 µM Sarcotoxin IA α-helical Sarcophaga peregrina […] 11.07 4.16 91.37 9.37 n-term. amidation
~ 25µM Stomoxyn α-helical Stomoxys calcitrans […] 11.26 4.40 95.34 10.08 n-term. amidation
~ 25µM Spinigerin linear Pseudacanthotermes spiniger […] 11.07 3.00 96.23 12.45 none
>25µM Apidaecin Ia proline-rich Apis mellifera GNNRPVYIPQPRPPHPRI 11.71 2.11 92.98 16.91 none
>25µM Drosocin proline-rich Drosophila melanogaster GKPRPYSPRPTSHPRPIRV 12.01 2.20 92.86 11.65 none
>25µM Pyrrhocoricin proline-rich Pyrrhocoris apterus […] 10.27 2.34 93.17 11.38 none
>25 µM Metalnikowin-1 proline-rich Palomena prasina […] 9.98 1.84 92.85 13.36 none
>25 µM Metalnikowin-2A proline-rich Palomena prasina […] 9.98 1.84 92.39 10.85 none
>25 µM Metchnikowin-1 proline-rich Drosophila melanogaster […] 10.74 3.03 99.06 11.50 none
>25 µM Metchnikowin-2 proline-rich Drolophila melanogaster […] 11.54 3.04 97.16 11.46 none
12.5 µM Defensin 1 disulfide stabilized Tribolium castaneum […] 9.7 4.83 90.53 18.41 none
~ 25 µM Cecropin-like α-helical Lucilia sericata[…] 10.35 6.66 90.28 12.01 none
0.195 µM Cecropin α-helical Galleria mellonella […] 10.21 4.21 93.61 12.33 n-term. amidation
0.37 µM Cecropin α-helical Lucilia sericata […] 10.56 4.26 94.31 10.83 n-term. amidation
12.5 µM Stomoxyn α-helical Lucilia sericata […] 10.73 4.38 90.37 13.35n-term. amidation n-term.
1.56 µM Cecropin(Sarcotoxin) α-helical Eristalis tenax […] 10.56 4.14 90.80 9.76 none

| MIC (minimal inhibitory concentration) | Compound |
| --- | --- |
| > 25 µM | DLRFLYPRGKLPVPTPPPFNPKPIYIDMGNRY [Lebocin-1] |
| 12.5 µM | GFRKRFNKLVKKVKHTIKETANVSKDVAIVAGSGVAVGAAMG-NH2 [Stomoxyn (Lucilia sericata)] |
| > 25 µM | GKPRPYSPRPTSHPRPIRV [Drosocin] |
| > 25 µM | GRPNPVNNKPTPHPRL [Formaecin-1] |
| > 25 µM | HRHQGPIFDTRPSPFNPNQPRPGPIY [Metchnikowin-1] |
| > 25 µM | HRRQGPIFDTRPSPFNPNQPRPGPIY [Metchnikowin-2] |
| ~ 25 µM | HVDKKVADKVLLLKQLRIMRLLTRL [Spinigerin] |
| 0.195 µM | KWKLFKKIEKVGQNIRDGIIKAGPAVAVVGQATQIAK-NH2 [Cecropin A (Hyalophora cecropia)] |
| > 25 µM | VDKPDYRPRPRPPNM [Metalnikowin-1] |
| > 25 µM | VDKPDYRPRPWPRPN [Metalnikowin-2A] |

More lines, now with the values behind:

| Compound | MIC (minimal inhibitory concentration) |
| --- | --- |
| FVPYNPPRPGQSKPFPSFPGHGPFNPKIQWPYPLPNPGH [Abaecin] | > 25 µM |
| GGLKKLGKKLEGAGKRVFNAAEKALPVVAGAKALRK [Cecropin A (Aedes aegypti)] | 1.56 µM |
| GNNRPVYIPQPRPPHPRI [Apidaecin Ia] | > 25 µM |
| KWKIFKKIEKAGRNIRDGIIKAGPAVSVVGEAATIYKTG-NH2 [Cecropin (Galleria mellonella)] | 0.195 µM |

same assay, conditions: M. catarrhalis grown to OD600 0.6 in BHI, diluted to OD600 0.01; AMP 25 µM to 0.048 µM at halving intervals; 37°C, 5% CO2; OD600 every 30 min

| Compound | MIC (minimal inhibitory concentration) |
| --- | --- |
| CC[C@H](C)[C@H](NC(=O)CNC(=O)[C@H](CC(C)C)NC(=O)CNC(=O)[C@H](CCC(N)=O)NC(=O)[C@@H](NC(=O)[C@@H](NC(=O)[C@H](C)NC(=O)[C@H](CC(=O)O)NC(=O)[C@H](CCCNC(=N)N)NC(=O)[C@@H](NC(=O)[C@H](Cc1c[nH]cn1)NC(=O)[C@H](CCC(N)=O)NC(=O)CNC(=O)[C@@H](NC(=O)[C@H](CCCNC(=N)N)NC(=O)[C@H](CCC(=O)O)NC(=O)[C@@H](NC(=O)[C@H](CCCCN)NC(=O)[C@H](CCCCN)NC(=O)CNC(=O)[C@@H](NC(=O)[C@H](CCCCN)NC(=O)[C@H](CCCCN)NC(=O)[C@H](CC(C)C)NC(=O)[C@H](Cc1c[nH]c2ccccc12)NC(=O)CN)[C@@H](C)CC)[C@@H](C)CC)C(C)C)[C@@H](C)O)[C@@H](C)O)[C@@H](C)CC)C(=O)N[C@@H](C)C(=O)N[C@@H](CCC(N)=O)C(=O)N[C@@H](CCC(N)=O)C(=O)N[C@@H](C)C(=O)N[C@@H](C)C(=O)N[C@@H](CC(N)=O)C(=O)N[C@H](C(=O)N[C@@H](C)C(=O)N[C@@H](C)C(=O)N[C@H](C(=O)N[C@@H](C)C(=O)N[C@@H](CCCNC(=N)N)C(N)=O)[C@@H](C)O)C(C)C [Sarcotoxin IA] | 0.39 µM (≈ 1.62 µg/mL) |
| GFLKKIGKKLEGAVQRTRDATIQTIAVAQAAANVAATAKQ [Cecropin(Sarcotoxin)] | 1.56 µM |
| GWLKKIGKKIERVGQHTRDATIQTIGVAQQAANVAATLKG-NH2 [Sarcotoxin 1 C] | 0.37 µM |
| RGFRKHFNKLVKKVKHTISETAHVAKDTAVIAGSGAAVVAAT-NH2 [Stomoxyn (Stomoxys calcitrans)] | ~ 25 µM |
| SIGSAFKKALPVAKKIGKAALPIAKAALP [Ceratotoxin] | > 25 µM |
| VDKGSYLPRPTPPRPIYNRN [Pyrrhocoricin] | > 25 µM |

test system: mice; settings: dose of 10 mg/kg; cited from earlier work

| Compound | acute toxicity in mice |
| --- | --- |
| GWLKKIGKKIERVGQHTRDATIQTIGVAQQAANVAATLKG-NH2 [Sarcotoxin 1 C] | no acute toxicity |

test system: not given; settings: cited from earlier work

| Compound | cardiotoxicity |
| --- | --- |
| GWLKKIGKKIERVGQHTRDATIQTIGVAQQAANVAATLKG-NH2 [Sarcotoxin 1 C] | no cytotoxicity or cardiotoxicity |

test system: not given; settings: cited from earlier work; remark: another data set of the same source
Description: We furthermore tested the effect of defensin 1 and sarcotoxin 1 C on the commensals E. faecalis and E. coli. Selectivity of AMPs may provide an important therapeutic advantage over broad-spectrum antibiotics because AMPs targeting pathogens but not commensals would avoid the common side effects of antibiotic therapy. […] Sarcotoxin 1 C was previously shown to inhibit 90% of clinical multidrug-resistant isolates of Ent ...

| Compound | broad-panel off-target profile | cytotoxicity | in vitro therapeutic index |
| --- | --- | --- | --- |
| GWLKKIGKKIERVGQHTRDATIQTIGVAQQAANVAATLKG-NH2 [Sarcotoxin 1 C] | inconspicuous | no cytotoxicity | good |

Reference: paper PMC8043168, “Tribolium castaneum defensin 1 kills Moraxella catarrhalisin an in vitro infection model but does not harm commensal bacteria” (Virulence, 2021)
